In PMC6792352, “Limited Chemical Structural Diversity Found to Modulate Thyroid Hormone Receptor in the Tox21 Chemical Library” (Environmental Health Perspectives, 2019):
Where a name gives a salt, the structure may show the parent alone.

Test: in vitro
Conditions: rat, gh3-tre-luc cells

SMILES	CC50 at 24 h (AC50 (uM) modified / 1000) [µM]	also measured
CCCCCCC(C)OC(=O)CCCCC(=O)OC(C)CCCCCC (stereo not drawn) [Diisooctyl adipate]	> 90	
CCCC1([C@H](O)C/C=C/[C@H]2[C@H](O)CC(=O)[C@@H]2CCCCCCC(=O)OC)CCC1 [(R)-Butaprost]	32.9	
C[C@@H](O)C(=O)O [D-Lactic acid]	> 100	
CC(C)C(=O)c1ccccc1 [Isopropyl phenyl ketone]	> 90	
CC(=O)c1ccc(C(C)=O)cc1 [1,1-(1,4-Phenylene)bis-ethanone]	> 90	
CC1C(C)(C)C2=C(C(=O)CCC2)C1(C)C (stereo not drawn) [Dihydro-1,1,2,3,3-pentamethyl-4(5H)-indanone]	> 90	
CC(C)OP(=O)(CP(=O)(OC(C)C)OC(C)C)OC(C)C [Tetraisopropyl methylenediphosphonate]	> 90	
Cc1onc(-c2ccccc2Cl)c1C(=O)N[C@@H]1C(=O)N2[C@@H]1SC(C)(C)[C@@H]2C(=O)O [Cloxacillin sodium]	> 20	
CC(C)(C)NCCNC(C)(C)C [N,N'-Di-tert-butylethane-1,2-diamine]	> 90	
CCCCCC1CCCC(=O)O1 (stereo not drawn) [6-Pentyltetrahydro-2H-pyran-2-one]	> 90	
Cc1cccc(Nc2ccncc2S(=O)(=O)NC(=O)NC(C)C)c1 [Torsemide]	> 20	
CC1(C)C2=CCCC(C)(C)[C@]23CC[C@H]1C3 [(-)-Isolongifolene]	> 90	
CCC(C)C(=O)OCCc1ccccc1 (stereo not drawn) [2-Phenylethyl 2-methylbutanoate]	> 90	
CC(CCO)CCc1ccccc1 (stereo not drawn) [3-Methyl-5-phenylpentan-1-ol]	> 90	
CCN(CCC#N)c1ccccc1 [3-[Ethyl(phenyl)amino]propanenitrile]	> 90	
Nc1c2c(nc3ccccc13)CCCC2 [1,2,3,4-Tetrahydro-9-acridinamine hydrochloride]	> 90	
COc1cc(NS(=O)(=O)c2ccc(N)cc2)nc(C)n1 [Sulfamethomidine]	> 50	
CC(C)(C)C1=CC(=O)C=C(C(C)(C)C)C1=O [2,6-Bis-(1,1-dimethylethyl)-2,5-cyclohexadiene-1,4-dione]	> 90	
O=S(=O)(O)c1cc(O)c2ccc(Nc3ccccc3)cc2c1 [4-Hydroxy-7-(phenylamino)naphthalene-2-sulfonic acid]	> 90	
CC1=C2C[C@H]3[C@@H](CC=C4C[C@@H](O)CC[C@@]43C)[C@@H]2CC[C@]12O[C@@H]1C[C@H](C)CN[C@H]1[C@H]2C [Cyclopamine]	5.73	
CC(=O)Nc1cc([As](=O)(O)O)ccc1O [Acetarsol]		CC50 at 24 h (AC50 (uM) modified / 1000, Tox21_110001=Tox21_111336, viability, 1 nM T3 present, 24 h): > 50 µM
O=Cc1ccc(Cl)cc1 [4-Chlorobenzaldehyde]	> 90	
Cn1c(=O)c2c(ncn2CC(O)CO)n(C)c1=O (stereo not drawn) [Dyphylline]	> 20	
O=C(O)c1ccc(C(=O)O)cc1 [Terephthalic acid]	> 90	

SMILES	CC50 at 24 h (AC50 (uM) modified / 1000) [µM]	also measured
CC(C)NCC(O)COc1ccc(COCCOC(C)C)cc1 (stereo not drawn) [Bisoprolol fumarate]	> 50	
C=CC(N)=O [Acrylamide]	> 90	
Cc1cc(Nc2ccc(O)cc2)ccc1N [4-Amino-4'-hydroxy-3-methyldiphenylamine]	11.4	
CCCCN1C[C@H](O)[C@@H](O)[C@H](O)[C@H]1CO [Miglustat]	> 50	
CCCC/C=C\CCCCCCCCCC=O [(Z)-11-Hexadecenal]	> 90	
Cc1cc(=O)n(-c2ccccc2)n1C [Phenazone]	> 50	
Cc1[nH]nc2c1N=C(c1ccccc1Cl)c1cc([N+](=O)[O-])ccc1N2 [PharmaGSID_48505]	39.4	
Cc1ccc(-c2nc3ccc(C)cn3c2CC(=O)N(C)C)cc1 [Zolpidem]	> 50	
C=CCOCC(CO)(CO)CO [Pentaerythritol allyl ether]	> 60	
Cc1ccc([N+](=O)[O-])cc1S(=O)(=O)O [2-Methyl-5-nitrobenzenesulfonic acid]	> 90	
O=Cc1ccc2c(c1)OCO2 [Piperonal]		CC50 at 24 h (AC50 (uM) modified / 1000, Tox21_110001=Tox21_200120, viability, 1 nM T3 present, 24 h): > 90 µM
Cc1ccccc1OCC(O)CO (stereo not drawn) [Mephenesin]	> 50	
CO[C@@H]1[C@@H](O[C@@H]2O[C@H](C)[C@@H](O[C@H]3C[C@@](C)(O)[C@@H](OC(=O)CC(C)C)[C@H](C)O3)[C@H](N(C)C)[C@H]2O)[C@@H](CC=O)C[C@@H](C)C(=O)/C=C/[C@@H]2O[C@H]2C[C@@H](C)OC(=O)C[C@H]1OC(C)=O [Carbomycin A]	34.1	
CCCCCCCC/C=C\CCCCCCCC(=O)OCCCC [9-Octadecenoic acid (9Z)-, butyl ester]	> 20	
CCCCCCC=O [Heptanal]	> 90	
C#C[C@]1(OC(=O)CCCCCC)CC[C@H]2[C@@H]3CCC4=CC(=O)CC[C@@H]4[C@H]3CC[C@@]21C [Noristerat]	10.7	
Cc1ccccc1CCO [2-Methylphenethyl alcohol]	> 90	
Cc1cc(CC(=O)O)n(C)c1C(=O)c1ccc(Cl)cc1 [Sodium zomepirac]	> 90	
COC(C)CCO (stereo not drawn) [3-Methoxybutan-1-ol]	> 90	
CCC1=C[C@@H]2CN(C1)Cc1c([nH]c3ccccc13)[C@@](C(=O)OC)(c1cc3c(cc1OC)N(C)[C@H]1[C@@](O)(C(=O)OC)[C@H](OC(C)=O)[C@]4(CC)C=CCN5CC[C@]31[C@@H]54)C2 [Vinorelbine tartrate]	6.67	
CN[C@@H]1[C@H](O[C@H]2[C@H](O[C@H]3[C@H](O)[C@@H](O)[C@H](NC(=N)N)[C@@H](O)[C@@H]3NC(=N)N)O[C@@H](C)[C@]2(O)CO)O[C@@H](CO)[C@H](O)[C@H]1O [Dihydrostreptomycin sulfate]	> 50	
CN(CCCCCCCCCCN(C)C(=O)Oc1cccc([N+](C)(C)C)c1)C(=O)Oc1cccc([N+](C)(C)C)c1 [Demecarium bromide]	> 20	
O=c1[nH]c(=O)[nH]c(=O)[nH]1 [Cyanuric acid]	> 90	
O=C(O)c1ccc(S(=O)(=O)N(Cl)Cl)cc1 [Halazone]	> 90	

SMILES	CC50 at 24 h (AC50 (uM) modified / 1000) [µM]	also measured
Nc1ccn([C@@H]2O[C@H](CO)[C@@H](O)C2(F)F)c(=O)n1 [Gemcitabine hydrochloride]	0.153	
CC(=O)C1(C)CC2=C(CCCC2(C)C)CC1C (stereo not drawn) [Isocyclemone E]	> 90	
Cc1cccc(C)c1N [2,6-Dimethylaniline]	> 90	
CC(=O)N[C@@H](CS)C(=O)O [N-Acetyl-L-cysteine]	> 90	
Clc1cccc(-c2cc(Cl)cc(Cl)c2)c1 [Aroclor 1016]	> 90	
CN1C(CSCC(F)(F)F)Nc2cc(Cl)c(S(N)(=O)=O)cc2S1(=O)=O (stereo not drawn) [Polythiazide]	> 50	
Cc1cscn1 [4-Methylthiazole]	> 90	
O=S(=O)(O)c1cccc2ccccc12 [Sodium 1-naphthalenesulfonate]	> 90	
O=C(O)c1ccc(S(=O)(=O)O)cc1C(=O)O [4-Sulfophthalic acid]	> 90	
Clc1ccc2c(c1)C(c1ccccc1)=NCc1nncn1-2 [Estazolam]	> 50	
CCCCN(CCCC)CCC(O)c1cc2c(Cl)cc(Cl)cc2c2cc(C(F)(F)F)ccc12 (stereo not drawn) [Halofantrine hydrochloride]	> 20	
CCCC1COC(Cn2cncn2)(c2ccc(Cl)cc2Cl)O1 (stereo not drawn) [Propiconazole]	61	
COc1ccc(N)cc1 [4-Methoxyaniline hydrochloride]		CC50 at 24 h (AC50 (uM) modified / 1000, Tox21_110001=Tox21_201498, viability, 1 nM T3 present, 24 h): > 90 µM
NC(=O)c1cc[n+](CC2=C(C(=O)O)N3C(=O)[C@@H](NC(=O)[C@@H](c4ccccc4)S(=O)(=O)[O-])[C@H]3SC2)cc1 [Cefsulodin sodium]	> 20	
COP(=S)(OC)Oc1ccc(Sc2ccc(OP(=S)(OC)OC)cc2)cc1 [Temephos]		CC50 at 24 h (AC50 (uM) modified / 1000, Tox21_110001=Tox21_112075, viability, 1 nM T3 present, 24 h): > 50 µM; CC50 at 24 h (AC50 (uM) modified / 1000, Tox21_110001=Tox21_301778, viability, 1 nM T3 present, 24 h): > 90 µM
CC1(C)CC(O)CC(C)(C)N1 [2,2,6,6-Tetramethyl-4-piperidinol]	> 90	
CCn1nc(C)c2c1C(=O)NCC(c1ccc(O)cc1)=N2 [PharmaGSID_47263]	> 90	
O=C(O)CS [Thioglycolic acid]	> 90	
CC(=O)SCC(Cc1ccccc1)C(=O)NCC(=O)OCc1ccccc1 (stereo not drawn) [Racecadotril]	> 20	
CCN(CC)CC [Triethylamine]	> 100	
CCCOc1cc(N)ccc1C(=O)OCCN(CC)CC [Propoxycaine hydrochloride]	> 20	
CCCNC(C)C(=O)Nc1ccccc1C (stereo not drawn) [Prilocaine hydrochloride]	> 50	
CC(C)(Sc1cc(C(C)(C)C)c(O)c(C(C)(C)C)c1)Sc1cc(C(C)(C)C)c(O)c(C(C)(C)C)c1 [Probucol]	> 20	
